Key:
[1] = test system: diamondback moth (Plutella xylostella (L.)); test: Test A: control of diamondback moth on mustard plant, spray; assay type: in vivo; conditions: sprayed at 250 ppm; assessed after 6 days
Description: (§1) Test compounds were formulated using a solution containing 10% acetone, […] and 300 ppm Activator 909 non-ionic surfactant (Loveland Products, Loveland, Colorado, USA). The formulated compounds were applied in 1 mL of liquid through an atomizer nozzle positioned 1.27 cm (0.5 inches) above the top of each test unit. Test compounds were sprayed at the rates indicated, and each test was replicated three times.
For evaluating control of diamondback moth (Plutella xylostella (L.)) the test unit consisted of a small open container with a 12-14-day-old mustard plant inside. This was pre-infested with ˜50 neonate larvae that were dispensed into the test unit via corn cob grits using an inoculator. The larvae moved onto the test plant after being dispensed into the test unit.
Test compounds were formulated and sprayed at 250 ppm. After spraying of the formulated test compound, each test unit was allowed to dry for 1 hour and then a black, screened cap was placed on top. The test units were held for 6 days in a growth chamber at 25° C. and 70% relative humidity. Plant feeding damage was then visually assessed based on foliage consumed, and larvae were assessed for mortality.

[2] = test system: Western Flower Thrips (Frankliniellla occidentalis (Pergande)); test: Test G: control of Western Flower Thrips on Soleil bean plant, spray; assay type: in vivo; conditions: sprayed at 250 ppm; 6 days
Description: as §1
For evaluating control of the Western Flower Thrips (Frankliniellla occidentalis (Pergande)) through contact and/or systemic means, the test unit consisted of a small open container with a 5-7-day-old Soleil bean plant inside.
Test compounds were formulated and sprayed at 250 ppm. After spraying, the test units were allowed to dry for 1 hour, and then about 60 thrips (adults and nymphs) were added to each unit. A black, screened cap was placed on top, and the test units were held for 6 days at 25° C. and 45-55% relative humidity. Each test unit was then visually assessed for plant damage and insect mortality.

[3] = test system: corn planthopper (Peregrinus maidis (Ashmead)); test: whole plant or invertebrate; assay type: in vivo; conditions: for mortality at 50 ppm / mortality at 250 ppm: Peregrinus maidis, 144 h, 6 days; for Control Efficacy CPH: corn planthopper
Procedure, shortened: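 Corn plants 3-4 days old were sprayed at 250, 50 and/or 10 ppm in 10% acetone with 300 ppm non-ionic surfactant, three replicates, contact and/or systemic exposure. After 1 h drying, ~15-20 nymphs (18-to-21-day-old) were added; mortality assessed visually after 6 days at 22-24° C, 50-70% RH.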

[4] = test system: green peach aphid (Myzus persicae (Sulzer)); test: Test D: control of green peach aphid on radish plant, spray; assay type: in vivo; conditions: for mortality at 250 ppm / mortality at 50 ppm: Myzus persicae, 144 h, 6 days; for Control Efficacy GPA: green peach aphid
Procedure, shortened: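 Radish plants (12-15 days old) pre-infested with 30-40 aphids, sprayed with compound in 10% acetone/water with 300 ppm non-ionic surfactant at 250 and/or 50 ppm, three replicates. Held 6 days at 19-21 °C, 50-70% relative humidity, then mortality scored visually.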

[5] = test system: cotton melon aphid (Aphis gossypii (Glover)); test: whole plant or invertebrate; assay type: in vivo; conditions: for mortality at 50 ppm / mortality at 250 ppm: Aphis gossypii, 144 h, 6 days; for Control Efficacy CMA: cotton melon aphid
Procedure, shortened: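 Compounds were formulated in a solution of 10% acetone, […] and 300 ppm Activator 909 non-ionic surfactant and sprayed as 1 mL through an atomizer nozzle 1.27 cm (0.5 inches) above each test unit, with three replicates. Units were pre-infested with 30-40 aphids on leaf pieces via the cut-leaf method, soil covered with sand, then kept 6 days at 19° C. and 70% relative humidity before visual mortality scoring.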

[6] = test system: sweetpotato whitefly (Bemisia tabaci (Gennadius)); test: Test F: control of sweetpotato whitefly on cotton plant, spray; assay type: in vivo; conditions: 312 h, 13 days; for mortality at 50 ppm: sprayed at 50 ppm; for mortality at 250 ppm: sprayed at 250 ppm
Procedure, shortened: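 Cotton plants 12–14 days old, trimmed to one true leaf and carrying at least 15 whitefly eggs, were sprayed at 250 and/or 50 ppm in acetone/water with non-ionic surfactant, three replicates. After 13 days at 28° C and 50-70% relative humidity, insect mortality was scored visually.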

[7] = test system: potato leafhopper (Empoasca fabae (Harris)); test: Test C: control of potato leafhopper on Soleil bean plant, spray; assay type: in vivo; conditions: for mortality at 250 ppm: Empoasca fabae, 144 h, 6 days; for Control Efficacy PLH: potato leafhopper
Description: as §1
For evaluating control of potato leafhopper (Empoasca fabae (Harris)) through contact and/or systemic means, the test unit consisted of a small open container with a 5-6-day-old Soleil bean plant (primary leaves emerged) inside. White sand was added to the top of the soil, and one of the primary leaves was excised prior to application of the test compound.
[…] After spraying of the formulated test compound, the test units were allowed to dry for 1 hour before they were post-infested with 5 potato leafhoppers (18-to-21-day-old adults). A black, screened cap was placed on the top of the test unit, and the test units were held for 6 days in a growth chamber at 20° C. and 70% relative humidity. Each test unit was then visually assessed for insect mortality.

[8] = Vapor pressure estimated by GC/MS retention time correlation; assay type: physicochemical
Description: The procedures to obtain the vapor pressure values for both compounds are as follows: A solution of the test compound was prepared in acetonitrile at a concentration of 50 μg/mL and was then analyzed by gas chromatography/mass spectrometry (GC/MS). A linear correlation of retention times vs. known vapor pressure values of standard compounds is used to obtain an estimate of the vapor pressure of the test compounds by using interpolation. Detection and retention time of the subject compounds are confirmed by interpretation of the mass spectrum.

## FC(c1ccc(OC(F)(F)F)cc1)c1c(Br)cncc1-n1nc(Br)c(Br)n1 (racemic) [Compound 29]
[1]
  control efficacy (40% or less feeding damage and/or 100% mortality): very good to excellent levels of control efficacy
[2]
  control efficacy (30% or less plant damage and/or 100% mortality): very good to excellent levels of control efficacy

## Fc1cncc(-n2cccn2)c1C(F)c1ccc(SC(F)(F)F)cc1 (stereo not drawn) [Compound 1]
[1]
  control efficacy (40% or less feeding damage and/or 100% mortality): very good to excellent levels of control efficacy
[3]; sprayed at 50 ppm
  mortality at 50 ppm: ≥ 80%
[3]; sprayed at 250 ppm
  mortality at 250 ppm: ≥ 80%
[4]; sprayed at 250 ppm
  mortality at 250 ppm: ≥ 80%
[5]; sprayed at 50 ppm
  mortality at 50 ppm: ≥ 80%
[5]; sprayed at 250 ppm
  mortality at 250 ppm: ≥ 80%
[6]
  mortality at 50 ppm: ≥ 70%
  mortality at 250 ppm: ≥ 70%
[2]
  control efficacy (30% or less plant damage and/or 100% mortality): very good to excellent levels of control efficacy

## Fc1cncc(-n2nccn2)c1C(F)c1ccc(OC(F)(F)F)cc1 (stereo not drawn) [Compound 8]
[3]; CPH, down to 2 ppm
  control efficacy compared with compound A: significantly higher control efficacy than compound A
[3]; sprayed at 50 ppm
  mortality at 50 ppm: ≥ 80%
  Control Efficacy CPH: 100%
[3]; sprayed at 250 ppm
  mortality at 250 ppm: ≥ 80%
  Control Efficacy CPH: 100%
[3]; sprayed at 2 ppm
  Control Efficacy CPH: 89%
[3]; sprayed at 10 ppm
  Control Efficacy CPH: 95%
[7]; sprayed at 250 ppm
  mortality at 250 ppm: ≥ 80%
  Control Efficacy PLH: 93
[7]; PLH, at 250 ppm
  control efficacy compared with compound A: significantly higher control efficacy than compound A
[7]; sprayed at 50 ppm
  Control Efficacy PLH: 0
[4]; GPA, down to 2 ppm
  control efficacy compared with compound A: significantly higher control efficacy than compound A
[4]; sprayed at 50 ppm
  mortality at 50 ppm: ≥ 80%
  Control Efficacy GPA: 100%
[4]; sprayed at 250 ppm
  mortality at 250 ppm: ≥ 80%
  Control Efficacy GPA: 100%
[4]; sprayed at 2 ppm
  Control Efficacy GPA: 100%
[4]; sprayed at 10 ppm
  Control Efficacy GPA: 94%
[5]; sprayed at 50 ppm
  mortality at 50 ppm: ≥ 80%
  Control Efficacy CMA: 96%
[5]; sprayed at 250 ppm
  mortality at 250 ppm: ≥ 80%
  Control Efficacy CMA: 80%
[5]; CMA, down to 2 ppm
  control efficacy compared with compound A: significantly higher control efficacy than compound A
[5]; sprayed at 2 ppm
  Control Efficacy CMA: 79%
[5]; sprayed at 10 ppm
  Control Efficacy CMA: 88%
[8]
  Vapor Pressure: 6.04E−06
[8]; compared with compound A
  vapor pressure relative to compound A: ~1000 times lower

## FC(c1ccc(OC(F)(F)F)cc1)c1ccncc1-n1nccn1 (stereo not drawn) [Compound 9]
[3]; sprayed at 50 ppm
  mortality at 50 ppm: ≥ 80%
[3]; sprayed at 250 ppm
  mortality at 250 ppm: ≥ 80%
[7]; sprayed at 250 ppm
  mortality at 250 ppm: ≥ 80%
[5]; sprayed at 50 ppm
  mortality at 50 ppm: ≥ 80%
[5]; sprayed at 250 ppm
  mortality at 250 ppm: ≥ 80%

## FC(c1ccc(OC(F)(F)F)cc1)c1ccncc1-n1cccn1 (stereo not drawn) [Compound 11]
[3]; sprayed at 50 ppm
  mortality at 50 ppm: ≥ 80%
[3]; sprayed at 250 ppm
  mortality at 250 ppm: ≥ 80%
[7]; sprayed at 250 ppm
  mortality at 250 ppm: ≥ 80%
[4]; sprayed at 250 ppm
  mortality at 250 ppm: ≥ 80%
[5]; sprayed at 50 ppm
  mortality at 50 ppm: ≥ 80%
[5]; sprayed at 250 ppm
  mortality at 250 ppm: ≥ 80%

## FC(c1ccc(OC(F)(F)F)cc1)c1c(Cl)cncc1-n1nccn1 (stereo not drawn) [Compound 14]
[3]; sprayed at 50 ppm
  mortality at 50 ppm: ≥ 80%
[3]; sprayed at 250 ppm
  mortality at 250 ppm: ≥ 80%
[7]; sprayed at 250 ppm
  mortality at 250 ppm: ≥ 80%
[4]; sprayed at 50 ppm
  mortality at 50 ppm: ≥ 80%
[4]; sprayed at 250 ppm
  mortality at 250 ppm: ≥ 80%
[5]; sprayed at 50 ppm
  mortality at 50 ppm: ≥ 80%
[5]; sprayed at 250 ppm
  mortality at 250 ppm: ≥ 80%
[6]
  mortality at 50 ppm: ≥ 70%
  mortality at 250 ppm: ≥ 70%

## Fc1cncc(-n2cccn2)c1C(F)c1ccc(C(F)(F)F)cc1 (stereo not drawn) [Compound 21]
[1]
  control efficacy (40% or less feeding damage and/or 100% mortality): very good to excellent levels of control efficacy
[3]; sprayed at 50 ppm
  mortality at 50 ppm: ≥ 80%
[3]; sprayed at 250 ppm
  mortality at 250 ppm: ≥ 80%
[7]; sprayed at 250 ppm
  mortality at 250 ppm: ≥ 80%
[4]; sprayed at 50 ppm
  mortality at 50 ppm: ≥ 80%
[4]; sprayed at 250 ppm
  mortality at 250 ppm: ≥ 80%
[5]; sprayed at 50 ppm
  mortality at 50 ppm: ≥ 80%
[5]; sprayed at 250 ppm
  mortality at 250 ppm: ≥ 80%

— patent publication US12568969B2, “Pyridine compounds for controlling invertebrate pests” (FMC Corporation, priority 2020, dated 2026)
